According to patent US7122668B2, “Platinum complexes and their use in therapy” (priority 2002, dated 2006):
Where two headings read alike, the source gives them in different places.

What was measured:
CH1 = experiment: Microculture tetrazolium (MTS) cell survival assay; assay type: cell-based; conditions: 24 hours incubation
Experimental: (§1) Cytotoxicity of the synthesized complexes was also tested by the MTS method^(21). Accordingly, the compounds were incubated for 24 hours with the corresponding cell lines and the cell survival in compound-treated cultures was evaluated.
(§2) The complexes were incubated for 24 hours with the above mentioned cell lines and the cell survival in compound-treated cultures was evaluated by the (microculture tetrazolium) MTS method as previously reported.

calf thymus DNA = experiment: DNA binding (calf thymus DNA platination); conditions: for t1/2 half time of the binding to calf thymus DNA: 10 mM NaClO4, 37° C., ri = 0.08, differential pulse polarography
Experimental: The formation of calf thymus DNA platination was also examined. To this end, calf thymus DNA was incubated with different compounds (Table 3) in which the following parameters were determined: […]

41M = experiment: Microculture tetrazolium (MTS) cell survival assay; assay type: cell-based; conditions: 24 hours incubation
Experimental: as §1, §2

CH1cisR = experiment: Microculture tetrazolium (MTS) cell survival assay; assay type: cell-based; conditions: for IC50: 24 hours incubation, MTS; for resistance factor (IC50 resistant/IC50 sensitive): CH1cisR/CH1
Experimental: as §1, §2

A2780cisR = experiment: Microculture tetrazolium (MTS) cell survival assay; assay type: cell-based; conditions: for IC50: 24 hours incubation, MTS; for resistance factor (IC50 resistant/IC50 sensitive): A2780cisR/A2780
Experimental: as §1, §2

41McisR = experiment: Microculture tetrazolium (MTS) cell survival assay; assay type: cell-based; conditions: for resistance factor (IC50 resistant/IC50 sensitive): 41McisR/41M; for IC50: 24 hours incubation, MTS
Experimental: as §1, §2

A2780 = experiment: Microculture tetrazolium (MTS) cell survival assay; assay type: cell-based; conditions: 24 hours incubation
Experimental: as §1, §2

C-26 cells = assay type: cell-based; conditions: C-26 cells, mean ± SD
Experimental: (§3) A human ovarian carcinoma cell line (OV-1063), established at the Hadassah University hospital and human colon carcinoma cell line (C-26) were maintained in RPMI-1640 medium supplemented with 10% FCS, antibiotics and glutamine. All culture medium components were purchased from Biological Industries (Beit-HaEmek, Israel). Both cell lines were maintained at 37° C. in a water-jacketed CO2 incubator.
(§4) Cytotoxicity of the synthesized complexes was tested by the methylene blue (MB) staining assay^(19). A fixed number of exponentially growing cells in 200 μl medium were plated in 96-microwell, flat-bottomed plates. For each of the complexes tested, 4 well were used. Following 24 hr in culture, 20 μl of different concentration of the complexes were added to each well containing untreated cells. Normal saline was added to the controls. Cells were exposed to complexes for 4, 24, or 72 hr. At the end of exposure for a fixed time interval, the treated cells as well as parallel control cells were washed and incubation was continued in fresh medium until termination of the experiment. Following 72 hr of growth, cells were fixed by adding 50 μl of 2.5% of glutaraldehyde to each well for 15 min. Fixed cells were rinsed 10 times with fresh de-ionized water and once with borate buffer (0.1 M, pH=8.5), dried and stained with MB (100 μl of 1% solution in 0.1 M borate buffer, pH=8.5) for 1 hr at room temperature. Stained cells were rinsed thoroughly with de-ionized water to remove any non-cell-bound die and then dried. The MB bound to the fixed cells was extracted by incubation at 37° C. with 200 μl of 0.1N HCl for 1 hr, and the net optical density (OD) of the die in each well was determined by a plate spectrophotometer (Labsystems Multyskan BICHROMATIC, Finland) at 620 nm.

OV-1063 cells = experiment: Methylene blue (MB) assay of cell survival; assay type: cell-based, human; conditions: mean ± SD
Experimental: as §3, §4

[1] = listed as cis-[PtCl2(NH3)(pic)]
[2] = rb = 0.05, listed as cis-[PtCl2(NH3)(pic)]
[3] = 4 h exposure, read-out: IC50, 4 h
[4] = 24 h exposure, read-out: IC50, 24 h
[5] = 72 h exposure, read-out: IC50, 72 h

Q: With `C1CCNCC1.C1CCNCC1.[Cl][Pt][Cl]` [Complex 6, Trans-[PtCl2(piperidine)2]] as the molecule, how does the IC50 (CH1; listed as trans-PtCl2(pip)2) read?
A: 35 ± 2 µM

Q: Which results are given for `C1CNCCN1.Cl.N.[Cl][Pt@SP1][Cl]` [Complex 16, cis-[PtCl2(NH3)(piperazine)].HCl]?
A: % IEC/adduct, frequency of interstrand crosslinks (calf thymus DNA): 6%; unwinding angle per adduct (calf thymus DNA): 13°; t1/2 half time of the binding to calf thymus DNA (calf thymus DNA): 35 min; ΔTm, 0.01M Na+ (calf thymus DNA; rb = 0.05): 3.5 0.C; ΔTm, 0.2 M (calf thymus DNA; rb = 0.05): −4.5 0.C; IC50 (41M): 46 ± 3 µM; IC50 (CH1cisR): 56 ± 3 µM; resistance factor (IC50 resistant/IC50 sensitive) (CH1cisR): 2.0; IC50 (A2780cisR): 25 ± 2 µM; resistance factor (IC50 resistant/IC50 sensitive) (A2780cisR): 2.5; resistance factor (IC50 resistant/IC50 sensitive) (41McisR): 2.4; IC50 (41McisR): 112 ± 12 µM; IC50 (A2780): 10 ± 1 µM; IC50 (CH1): 28 ± 2 µM

Q: How did the IC50 (41M) turn out when `C1CCNCC1.C1CCNCC1.[Cl][Pt][Cl]` [cis-PtCl2(pip)2, reference compound] was run?
A: 50 ± 3 µM

Q: What about the IC50 (CH1cisR) of the same molecule?
A: 280 ± 12 µM

Q: And the “resistance factor (IC50 resistant/IC50 sensitive)” value (shortened to “resistance factor”) (CH1cisR)?
A: (8)

Q: And the IC50 (A2780cisR)?
A: 250 ± 12 µM

Q: And the “resistance factor” value (A2780cisR)?
A: (16.7)

Q: What about the “resistance factor” value (41McisR) of the same molecule?
A: 6

Q: What about the IC50 (41McisR) of the same molecule?
A: 300 ± 25 µM

Q: What about the IC50 (A2780) of the same molecule?
A: 15 ± 2 µM

Q: And the IC50 (CH1)?
A: 32 ± 2 µM

Q: For trans-PtCl2(NH3)(4-pip)Cl2, which IC50 (41M) is on record?
A: 27 ± 2 µM

Q: What about the IC50 (CH1cisR) of the same molecule?
A: 94 ± 6 µM

Q: What about the “resistance factor” value (CH1cisR) of the same molecule?
A: (6.3)

Q: What about the IC50 (A2780cisR) of the same molecule?
A: 20 ± 2 µM

Q: What about the “resistance factor” value (A2780cisR) of the same molecule?
A: 4.0

Q: And the “resistance factor” value (41McisR)?
A: 5.5

Q: And the IC50 (41McisR)?
A: 150 ± 8 µM

Q: And the IC50 (A2780)?
A: 5 ± 0.7 µM

Q: What about the IC50 (CH1) of the same molecule?
A: 15 ± 2 µM

Q: For “Trans-[PtCl2(isopropylamine)(piperazine)].HCl [Complex 9]”, which IC50 (41M) is on record?
A: 38 ± 3 µM

Q: What about the IC50 (CH1cisR) of the same molecule?
A: 50 ± 3 µM

Q: What about the “resistance factor” value (CH1cisR) of the same molecule?
A: 5.0

Q: What about the IC50 (A2780cisR) of the same molecule?
A: 30 ± 2 µM

Q: What about the “resistance factor” value (A2780cisR) of the same molecule?
A: 2.1

Q: And the “resistance factor” value (41McisR)?
A: 3.2

Q: And the IC50 (41McisR)?
A: 122 ± 8 µM

Q: What about the IC50 (A2780) of the same molecule?
A: 14 ± 1 µM

Q: And the IC50 (CH1)?
A: 10 ± 1 µM

Q: How did the “t1/2 half time of the binding to calf thymus DNA” value (calf thymus DNA; [1]) turn out when `Cc1ccncc1.N.[Cl][Pt][Cl]` [cis-[PtCl2(NH3)(4-picoline)]] [reference compound] was run?
A: 21 min

Q: What about the “% IEC/adduct, frequency of interstrand crosslinks” value (calf thymus DNA; [1]) of the same molecule?
A: 4%

Q: What about the “unwinding angle per adduct” value (calf thymus DNA; [1]) of the same molecule?
A: 12°

Q: What about the “ΔTm, 0.01M Na+” value (calf thymus DNA; [2]) of the same molecule?
A: +1.6 0.C

Q: And the “ΔTm, 0.2 M” value (calf thymus DNA; [2])?
A: −4.8 0.C

Q: What about the “ΔΔεmax, maximum of the positive CD band at around 275 nm” value (calf thymus DNA; rb = 0.05, difference between control and platinated DNA, listed as cis-[PtCl2(NH3)(pic)]) of the same molecule?
A: 0.92

Q: What about the IC50 (C-26 cells; [3]) of the same molecule?
A: 5.1 ± 1.2 µM

Q: What about the IC50 (C-26 cells; [4]) of the same molecule?
A: 4.7 ± 2.4 µM

Q: And the IC50 (C-26 cells; [5])?
A: 3.7 ± 1.6 µM

Q: What about the IC50 (OV-1063 cells; [3]) of the same molecule?
A: 6 ± 2.2 µM

Q: What about the IC50 (OV-1063 cells; [4]) of the same molecule?
A: 5.1 ± 1.9 µM

Q: And the IC50 (OV-1063 cells; [5])?
A: 4 ± 1.7 µM

Q: Which results are given for `C1CNCCN1.C1CNCCN1.Cl.[Cl][Pt][Cl]` [Complex 14, Trans-[PtCl2(piperazine)(piperazine)].HCl]?
A: IC50 (41M): 43 ± 3 µM; IC50 (CH1cisR): 53 ± 3 µM; resistance factor (IC50 resistant/IC50 sensitive) (CH1cisR): 2.0; IC50 (A2780cisR): 43 ± 3 µM; resistance factor (IC50 resistant/IC50 sensitive) (A2780cisR): 2.5; resistance factor (IC50 resistant/IC50 sensitive) (41McisR): 3.6; IC50 (41McisR): 153 ± 10 µM; IC50 (A2780): 17 ± 3 µM; IC50 (CH1): 26 ± 2 µM
